Laboratory results: US10590085B2, “Heterocyclic amides as kinase inhibitors” (GlaxoSmithKline Intellectual Property Development Limited, priority 2015, dated 2020)

These compounds were tested on human monocytic leukemia U937 cells (assay: necroptosis assay in U937 cells). Details: Homo sapiens, U-937, U937 cells; viability by cellular ATP (Cell Titer-Glo); read-out: mean pIC50, inhibition of necrosis in U937 cells (converted).
Assay type: cell-based
Method: The efficacy of RIP1 inhibitors can be tested […] in vitro using a human monocytic leukemia U937 or mouse L929 fibrosarcoma cells in a necroptosis assay. As determined using the method described in He, S. et al. 2009. Cell 137(6):1100-1111 and International Patent Appln. No. PCT/IB2014/059004, now, International Patent Appln. Pub.
Viability was measured by quantitating cellular levels of ATP using the Cell Titer-Glo kit. All data are means±standard deviation of the mean.
Compound `O=C(C1CCN(c2ncc(F)cn2)CC1)N1N=CCC1c1ccccc1` (stereo not shown) [Example 6, (1-(5-fluoropyrimidin-2-yl)piperidin-4-yl)(5-phenyl-4,5-dihydro-1H-pyrazol-1-yl)methanone] has an IC50 of 0.001 to 0.1 µM. For `O=C(C1CCN(c2ncc(F)cn2)CC1)N1N=CCC1c1cncc(F)c1` (stereo not shown) [Example 9], the IC50 was 0.001 to 0.1 µM. `O=C(C1CCN(c2ncc(F)cn2)CC1)N1N=CC[C@H]1c1cncc(F)c1` [Example 10, (S)-(5-(5-fluoropyridin-3-yl)-4,5-dihydro-1H-pyrazol-1-yl)(1-(5-fluoro-pyrimidin-2-yl)piperidin-4-yl)methanone] showed an IC50 of 0.001 to 0.1 µM. For `CC(C)(C)C(=O)N1N=CCC1c1cncc(F)c1` (stereo not shown) [Example 14, 1-(5-(5-fluoro-pyridin-3-yl)-4,5-dihydro-1H-pyrazol-1-yl)-2,2-dimethyl-propan-1-one], the IC50 was 0.001 to 0.1 µM. For `O=C(C1CCN(c2ccccc2)CC1)N1N=CCC1c1ccccc1` (stereo not shown) [Example 18, (5-phenyl-4,5-dihydro-1H-pyrazol-1-yl)(1-phenylpiperidin-4-yl)-methanone], the IC50 was 0.001 to 0.1 µM. In the case of `O=C(C1CCN(c2ccccc2)CC1)N1N=CC[C@H]1c1ccccc1` [Example 19, (S)-(5-phenyl-4,5-dihydro-1H-pyrazol-1-yl)(1-phenyl-piperidin-4-yl)-methanone], the IC50 is reported as 0.001 to 0.1 µM. In the case of `O=C(C1CCCC1)N1N=CCC1c1ccccc1` (stereo not shown) [Example 22, cyclopentyl(5-phenyl-4,5-dihydro-1H-pyrazol-1-yl)methanone], the IC50 is reported as 0.001 to 0.1 µM. With `Cc1cccc(C(=O)N2N=CCC2c2ccccc2)c1` (stereo not shown) [Example 23, (5-phenyl-4,5-dihydro-1H-pyrazol-1-yl)(m-tolyl) methanone] the IC50 was ~0.501 µM. `CC(C)(C)C(=O)N1N=CC[C@H]1c1cccnc1` [Example 42, (S)-2,2-dimethyl-1-(5-(pyridin-3-yl)-4,5-dihydro-1H-pyrazol-1-yl)-propan-1-one] was tested, and the IC50 was ~0.251 µM. Compound `CC(C)(C)C(=O)N1N=CCC1c1cccc(Cl)c1` (stereo not drawn) [Example 43, 1-(5-(3-chlorophenyl)-4,5-dihydro-1H-pyrazol-1-yl)-2,2-dimethyl propan-l-one] has an IC50 of 0.001 to 0.1 µM. With `Cc1ccc(C2CC=NN2C(=O)C(C)(C)C)c(F)c1` (stereo not shown) [Example 53, 1-(5-(2-fluoro-4-methylphenyl)-4,5-dihydro-1H-pyrazol-1-yl)-2,2-dimethyl-propan-1-one] the IC50 was 0.001 to 0.1 µM. Work on `Cc1ccc(C2CC=NN2C(=O)C(C)(C)C)cc1F` (stereo not shown) [Example 54, 1-(5-(3-fluoro-4-methylphenyl)-4,5-dihydro-1H-pyrazol-1-yl)-2,2-dimethyl-propan-1-one] yielded an IC50 of 0.001 to 0.1 µM. `Cc1ccc(C2CC=NN2C(=O)C(C)(C)C)cc1` (stereo not shown) [Example 58, 2,2-dimethyl-1-(5-(p-tolyl)-4,5-dihydro-1H-pyrazol-1-yl)propan-1-one] was tested, and the IC50 was 0.001 to 0.1 µM. In the case of `Cc1ccccc1C1CC=NN1C(=O)C(C)(C)C` (stereo not shown) [Example 60, 2,2-dimethyl-1-(5-(o-tolyl)-4,5-dihydro-1H-pyrazol-1-yl)propan-1-one], the IC50 is reported as 0.001 to 0.1 µM. With `O=C(c1ccccc1)N1N=CCC1c1ccccc1` (stereo not shown) [Example 64, phenyl(5-phenyl-4,5-dihydro-1H-pyrazol-1-yl)-methanone 2,2,2-trifluoroacetate] the IC50 was ~0.316 µM. Compound `CC(C)(C)C(=O)N1N=CCC1c1ccc(Cl)cc1` (stereo not shown) [Example 65, 1-(5-(4-chloro-phenyl)-4,5-dihydro-1H-pyrazol-1-yl)-2,2-dimethyl-propan-1-one] has an IC50 of 0.001 to 0.1 µM. `CC(C)(C)C(=O)N1N=CCC1c1cccc(F)c1` (stereo not shown) [Example 67, 1-(5-(3-fluoro-phenyl)-4,5-dihydro-1H-pyrazol-1-yl)-2,2-dimethylpropan-1-one 2,2,2-trifluoroacetate] showed an IC50 of 0.001 to 0.1 µM. With `Cc1cc(F)cc(C2CC=NN2C(=O)C(C)(C)C)c1` (stereo not shown) [Example 76, 1-(5-(3-fluoro-5-methylphenyl)-4,5-dihydro-1H-pyrazol-1-yl)-2,2-dimethyl-propan-1-one] the IC50 was 0.001 to 0.1 µM. `CC(C)(C)C(=O)N1N=CC[C@H]1c1ccc(C#N)cc1` [Example 79, (S)-4-(1-pivaloyl-4,5-dihydro-1H-pyrazol-5-yl)-benzonitrile] gave an IC50 of 0.001 to 0.1 µM. Compound `CC(C)(C)C(=O)N1N=CCC1c1cccc(C#N)c1` (stereo not shown) [Example 80, 3-(1-pivaloyl-4,5-dihydro-1H-pyrazol-5-yl)benzonitrile] has an IC50 of 0.001 to 0.1 µM. For `CC1=NN(C(=O)C(C)(C)C)C(c2ccccc2)C1` (stereo not shown) [Example 81, 2,2-dimethyl-1-(3-methyl-5-phenyl-4,5-dihydro-1H-pyrazol-1-yl)-propan-1-one], the IC50 was ~0.631 µM. Compound `CC1=NN(C(=O)C2CCN(c3ncc(F)cn3)CC2)C(c2ccccc2)C1` (stereo not shown) [Example 87, (1-(5-fluoro-pyrimidin-2-yl)-piperidin-4-yl)(3-methyl-5-phenyl-4,5-dihydro-1H-pyrazol-1-yl)-methanone] has an IC50 of 0.001 to 0.1 µM. With `O=C(c1cccc(Cl)n1)N1CCC(C(=O)N2N=CCC2c2ccccc2)CC1` (stereo not shown) [Example 105, (1-(6-chloro-picolinoyl)piperidin-4-yl)(5-phenyl-4,5-dihydro-1H-pyrazol-1-yl)methanone] the IC50 was 0.001 to 0.1 µM. Work on `O=C(c1ccc(F)cn1)N1CCC(C(=O)N2N=CCC2c2ccccc2)CC1` (stereo not shown) [Example 108, (1-(5-fluoro-picolinoyl)piperidin-4-yl)(5-phenyl-4,5-dihydro-1H-pyrazol-1-yl)methanone] yielded an IC50 of 0.001 to 0.1 µM. `O=C(c1nccs1)N1CCC(C(=O)N2N=CCC2c2ccccc2)CC1` (stereo not shown) [Example 112, (5-phenyl-4,5-dihydro-1H-pyrazol-1-yl)(1-(thiazole-2-carbonyl)piperidin-4-yl)methanone] was tested, and the IC50 was 0.001 to 0.1 µM. `O=C(c1cocn1)N1CCC(C(=O)N2N=CCC2c2ccccc2)CC1` (stereo not shown) [Example 114, oxazol-4-yl(4-(5-phenyl-4,5-dihydro-1H-pyrazole-1-carbonyl)piperidin-1-yl)methanone] was tested, and the IC50 was 0.001 to 0.1 µM. For `Cc1ccc(C(=O)N2CCC(C(=O)N3N=CCC3c3ccccc3)CC2)s1` (stereo not shown) [Example 122, (5-methylthiophen-2-yl)(4-(5-phenyl-4,5-dihydro-1H-pyrazole-1-carbonyl)piperidin-1-yl)methanone], the IC50 was 0.001 to 0.1 µM. Compound `Cc1ncc(C(=O)N2CCC(C(=O)N3N=CCC3c3ccccc3)CC2)s1` (stereo not shown) [Example 124, (2-methylthiazol-5-yl)(4-(5-phenyl-4,5-dihydro-1H-pyrazole-1-carbonyl)piperidin-1-yl)methanone] has an IC50 of 0.001 to 0.1 µM. With `O=C(c1ccns1)N1CCC(C(=O)N2N=CCC2c2ccccc2)CC1` (stereo not shown) [Example 125, isothiazol-5-yl(4-(5-phenyl-4,5-dihydro-1H-pyrazole-1-carbonyl)piperidin-1-yl)methanone] the IC50 was 0.001 to 0.1 µM. In the case of `O=C(c1ccc(F)cc1)N1CCC(C(=O)N2N=CCC2c2ccccc2)CC1` (stereo not shown) [Example 130, (1-(4-fluoro-benzoyl)piperidin-4-yl)(5-phenyl-4,5-dihydro-1H-pyrazol-1-yl)methanone], the IC50 is reported as 0.001 to 0.1 µM. Work on `O=C(c1ccc(F)cc1F)N1CCC(C(=O)N2N=CCC2c2ccccc2)CC1` (stereo not shown) [Example 131, (1-(2,4-difluorobenzoyl)piperidin-4-yl)(5-phenyl-4,5-dihydro-1H-pyrazol-1-yl)-methanone] yielded an IC50 of 0.001 to 0.1 µM. Work on `O=C(c1nc2ccccc2s1)N1CCC(C(=O)N2N=CCC2c2ccccc2)CC1` (stereo not shown) [Example 139, beno[d]thiazol-2-yl(4-(5-phenyl-4,5-dihydro-1H-pyrazole-1-carbonyl)piperidin-1-yl)methanone] yielded an IC50 of 0.001 to 0.1 µM. `O=C(c1n[nH]c2ccccc12)N1CCC(C(=O)N2N=CCC2c2ccccc2)CC1` (stereo not shown) [Example 140, (1-(1H-indazole-3-carbonyl)piperidin-4-yl)(5-phenyl-4,5-dihydro-1H-pyrazol-1-yl)methanone] was tested, and the IC50 was 0.001 to 0.1 µM. Compound `O=C(c1noc2ccccc12)N1CCC(C(=O)N2N=CCC2c2ccccc2)CC1` (stereo not shown) [Example 146, benzo[d]isoxazol-3-yl(4-(5-phenyl-4,5-dihydro-1H-pyrazole-1-carbonyl)piperidin-1-yl)methanone] has an IC50 of 0.001 to 0.1 µM. `O=C(c1cnco1)N1CCC(C(=O)N2N=CCC2c2ccccc2)CC1` (stereo not shown) [Example 147, oxazol-5-yl(4-(5-phenyl-4,5-dihydro-1H-pyrazole-1-carbonyl)piperidin-1-yl)methanone] was tested, and the IC50 was 0.001 to 0.1 µM. `O=C(c1ncco1)N1CCC(C(=O)N2N=CCC2c2ccccc2)CC1` (stereo not shown) [Example 148, oxazol-2-yl(4-(5-phenyl-4,5-dihydro-1H-pyrazole-1-carbonyl)piperidin-1-yl)methanone] showed an IC50 of 0.001 to 0.1 µM. `O=C(c1ccno1)N1CCC(C(=O)N2N=CCC2c2ccccc2)CC1` (stereo not shown) [Example 151, isoxazol-5-yl(4-(5-phenyl-4,5-dihydro-1H-pyrazole-1-carbonyl)piperidin-1-yl)methanone] was tested, and the IC50 was 0.001 to 0.1 µM. For `O=C(c1ccon1)N1CCC(C(=O)N2N=CCC2c2ccccc2)CC1` (stereo not shown) [Example 153, isoxazol-3-yl(4-(5-phenyl-4,5-dihydro-1H-pyrazole-1-carbonyl)piperidin-1-yl)methanone], the IC50 was 0.001 to 0.1 µM. `O=C(c1cscn1)N1CCC(C(=O)N2N=CCC2c2ccccc2)CC1` (stereo not shown) [Example 154, (5-phenyl-4,5-dihydro-1H-pyrazol-1-yl)(1-(thiazole-4-carbonyl)piperidin-4-yl)methanone] showed an IC50 of 0.001 to 0.1 µM. In the case of `O=C(c1ccccc1)N1CCC(C(=O)N2N=CCC2c2ccccc2)CC1` (stereo not shown) [Example 164, (1-benzoylpiperidin-4-yl)(5-phenyl-4,5-dihydro-1H-pyrazol-1-yl)methanone], the IC50 is reported as 0.001 to 0.1 µM. With `O=C(C1CCN(c2ncccn2)CC1)N1N=CCC1c1ccccc1` (stereo not shown) [Example 171, (5-phenyl-4,5-dihydro-1H-pyrazol-1-yl)(1-(pyrimidin-2-yl)piperidin-4-yl)methanone] the IC50 was 0.001 to 0.1 µM. With `O=C(c1cccs1)N1N=CCC1c1ccccc1` (stereo not shown) [Example 174, (5-phenyl-4,5-dihydro-1H-pyrazol-1-yl)(thiophen-2-yl)methanone 2,2,2-trifluoroacetate] the IC50 was ~0.501 µM. `Cn1cccc1C(=O)N1CCC(C(=O)N2N=CCC2c2ccccc2)CC1` (stereo not shown) [Example 175, (1-methyl-1H-pyrrol-2-yl)(4-(5-phenyl-4,5-dihydro-1H-pyrazole-1-carbonyl)piperidin-1-yl)methanone 2,2,2-trifluoroacetalc] gave an IC50 of 0.001 to 0.1 µM.
